One compound from patent US20020037872A1, “N6 heterocyclic 5' modified adenosine derivatives” (CV Therapeutics, Inc., priority 1999, published 2002) can be followed below.

Assay [1] has as its target T1, A1 receptor (Sus scrofa, UniProt I3LEN5).
T1 sequence (I3LEN5 1-326): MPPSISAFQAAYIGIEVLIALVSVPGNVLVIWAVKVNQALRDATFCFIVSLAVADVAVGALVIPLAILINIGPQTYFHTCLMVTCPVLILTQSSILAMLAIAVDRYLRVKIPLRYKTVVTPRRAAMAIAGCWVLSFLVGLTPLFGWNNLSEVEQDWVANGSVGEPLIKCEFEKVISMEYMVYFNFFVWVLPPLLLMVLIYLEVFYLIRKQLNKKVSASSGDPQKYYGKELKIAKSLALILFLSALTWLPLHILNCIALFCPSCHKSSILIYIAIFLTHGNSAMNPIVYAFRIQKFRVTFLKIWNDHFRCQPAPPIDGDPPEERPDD
Briefly: Competitive binding assay, pig striatum membrane prep, [3H]CPX. The conditions noted are these: [3H]CPX 2 nM, pig striatal membranes. The method, then:
Competitive Binding Assay Pig striatum were prepared by homogenation in 50 mM Tris buffer (5× volume of tissue mass pH=7.4). After centrifilgation at 19,000 rpm for 25 minutes at 4° C., the supernatant was discarded, and the process was repeated twice. Compositions of this invention were assayed to determine their affinity for the A1 receptor in a pig striatum membrane prep or a DDT, membrane prep. Briefly, 0.2 mg of pig striatal membranes or DDT, cell membranes were treated with adenosine deaminase and 50 mM Tris buffer (pH=7.4) followed by mixing. To the pig membranes was added 2 μL of serially diluted DMSO stock solution of the compounds of this invention at concentrations ranging from 100 microM to 10 nM. The control received 2 microL of DMSO alone, then the antagonist [^3H] 8-cyclopentylxanthine (CPX) for pig striatum or the agonist [^3H] 2-chloro-6-cyclopentyladenosine (CCPA) for DDT, membranes in Tris buffer (50 mnM, pH of 7.4) was added to achieve a final concentration of 2 nM. After incubation at 23 C for 2 h, the solutions were filtered using a membrane harvester using multiple washing of the membranes (3×). The filter disks were counted in scintillation cocktail affording the amount of displacement of triated CPX or by the competitive binding compositions of this invention. […]

In assay [2] the target is T2, A1 receptor (Mesocricetus auratus, UniProt A0A1U8BVR4).
T2 construct: endogenous in cells; host or cells: DDT1 (DDT1 MF-2) hamster vas deferens smooth muscle cells
T2 sequence (A0A1U8BVR4 1-326): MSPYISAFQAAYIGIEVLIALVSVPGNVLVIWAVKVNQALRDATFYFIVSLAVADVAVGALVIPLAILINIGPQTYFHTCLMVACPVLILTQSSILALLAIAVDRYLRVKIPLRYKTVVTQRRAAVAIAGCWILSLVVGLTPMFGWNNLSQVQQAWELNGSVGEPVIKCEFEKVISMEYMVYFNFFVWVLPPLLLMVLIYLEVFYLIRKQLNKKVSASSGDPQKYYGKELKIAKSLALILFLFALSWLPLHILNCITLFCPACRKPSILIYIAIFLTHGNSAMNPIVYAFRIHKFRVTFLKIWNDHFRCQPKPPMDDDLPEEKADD
Briefly: Competitive binding assay, DDT1 cell membranes, [3H]CCPA. On the set-up: species or system hamster. The note with it: [3H]CCPA 2 nM, DDT1 cell membranes; read-out: Ki-DDT1 cell membrane.

Consider `CNC(=O)OC[C@H]1O[C@@H](n2cnc3c(N[C@@H]4CCOC4)ncnc32)[C@H](O)[C@@H]1O` [Compound 6, (5-16[((3R)oxolan-3-yl)aminolpurin-9-yl)(3S,2R,4R,5R)-3,4dihydroxyoxolan-2yl)methoxyl-N-methylearboxamide], for which the inhibitory constant (Ki) at A1 receptor [1] turned out to be 228 nM; at A1 receptor [2] it was 178 nM.

What is called Ki is the equilibrium dissociation constant of an inhibitor or competing ligand from its target.
